Assays:
IRE1α endonuclease = molecular target: T1, IRE1α endonuclease (Rattus norvegicus, UniProt A0A4Y1YQ52); test: XBP1 splicing assay in VSMCs; assay type: cell-based; settings: tunicamycin (1 μg/ml) 6 h, 4μ8c 30 μM or STF-083010 60 μM, FIG. 1A
T1 construct: endogenous in cells; host or cells: primary aortic vascular smooth muscle cells from 5-week old WKY rats
Procedure: (§1) VSMCs were treated with tunicamycin (1 μg/ml) and either 4μ8c (30 μM) or STF-083010 (60 μM) for 6 h or 24 h. (A) Agarose gel for assessment of XBP1 splicing after 6 h of treatment with tunicamycin and densitometric quantification. (B) Western blot for assessment of ER chaperone expression after 24 h tunicamycin treatment with or without inhibition of IRE1α by 4μ8c. Data is presented as mean±SEM. *, p<0.05 vs. Vehicle; #, p<0.05 vs. Tm.
(§2) VSMCs were cultured in DMEM/F12 containing 1% FBS. Confluent cells were treated with L-ascorbic acid-2-phosphate (100 μg/ml) and either TGF-β1 (5 ng/ml) or Ang II (1 μM). (A) Agarose gel for assessment of TGF-β1-induced XBP1 splicing in VSMCs after 24 h. (B) Picro-Sirius Red assay for measurement of collagen deposition induced by combined TGF-β1 and AA2P treatment after 72 h, and inhibition by 4μ8c and STF-083010. (C) Western blot for assessment of collagen chaperone expression after treatment of TGF-β1 and 4μ8c for 48 h. *, p<0.05. (D) Measurement of Ang II-induced collagen production and inhibition by 4μ8c and STF-083010 after 72 h.
VSMCs were isolated from the aortas of 5-week old WKY rats using the explant method^29. The thoracic aorta was removed from the animal and placed in ice-cold 5× Antibiotics-Antimycotics solution (ThermoFisher). The adventitia was gently removed and the aorta was cut longitudinally. The endothelial layer was removed by gentle scraping with forceps. […]
Total RNA was extracted from cultured cells and rat tissues using the TRIzol reagent (ThermoFisher) according to manufacturer's instructions. RNA concentration and purity were measured using a Nanodrop ND-1000 spectrophotometer (NanoDrop Technologies, Inc.). […]
Aortic VSMCs were isolated from normotensive WKY rats and used for in vitro experiments. […] To test the ability of these compounds to block the IRE1α endonuclease, XBP1 splicing was measured in VSMCs treated with the ER stress inducer tunicamycin for 6 h with or without pre-treatment by 4μ8c or STF-083010. […]

VSMCs = test: Picro-Sirius Red assay of collagen synthesis in VSMCs; assay type: cell-based, rat
Procedure: as §2
VSMCs were isolated from the aortas of 5-week old WKY rats using the explant method^29. The thoracic aorta was removed from the animal and placed in ice-cold 5× Antibiotics-Antimycotics solution (ThermoFisher). The adventitia was gently removed and the aorta was cut longitudinally. The endothelial layer was removed by gentle scraping with forceps. The aorta was cut into 3 mm^2 squares and placed on a 6 well plate in DMEM/F12 medium containing 10% fetal bovine serum (FBS). Explants were incubated undisturbed in a 5% CO2 incubator at 37° C. for 1 week and then passaged. Sprague-Dawley renal fibroblasts were purchased (Cell Biologics) and cultured in low glucose DMEM/F12 medium containing 10% FBS, streptomycin (100 μgimp, and penicillin (100 U/ml, Invitrogen, Burlington, ON). Cells between passages 5 and 10 were used for experiments. Cells were cultured in medium containing 1% FBS overnight before treatment.
Collagen synthesis was measured using a Picro-Sirius Red-based assay as previously described^30. Briefly, cells cultured on a 96 well plate were fixed in methanol for 10 minutes at −20° C. Cells were washed once with PBS and incubated with Picrosirius Red stain (0.1% Direct Red 80 in saturated picric acid) for 1 h at room temperature. After the staining solution was removed, the cells were washed three times with 0.1% acetic acid and then imaged. The dye was then eluted with 0.1 N NaOH for 10 minutes on a rocking platform. Absorbance at 540 nm was measured using a Spectramax Plus Microplate Reader (Molecular Devices).
Cells were co-treated with either 4μ8c or S′TF-083010 to inhibit IRE1α endonuclease activity. TGF-β1 induced XBP1 splicing after 24 h, which was blocked by co-treatment with 4μ8c (FIG. 2A). Collagen production was measured using a Picro-Sirius Red-based colorimetric assay. TGF-β1 combined with AA2P induced collagen synthesis in the VSMCs, which was inhibited by co-treatment with 4μ8c or STF-083010 (FIG. 2B).

GRP78, GRP94 and PDI = test: Western blot of ER chaperone / ER stress marker expression in VSMCs; assay type: cell-based, rat; settings: 24 h tunicamycin treatment, FIG. 1B
Procedure: as §1, §2
VSMCs were isolated from the aortas of 5-week old WKY rats using the explant method^29. The thoracic aorta was removed from the animal and placed in ice-cold 5× Antibiotics-Antimycotics solution (ThermoFisher). The adventitia was gently removed and the aorta was cut longitudinally. The endothelial layer was removed by gentle scraping with forceps. The aorta was cut into 3 mm^2 squares and placed on a 6 well plate in DMEM/F12 medium containing 10% fetal bovine serum (FBS). Explants were incubated undisturbed in a 5% CO2 incubator at 37° C. for 1 week and then passaged. […]
Cells were lysed in 1× Laemmli buffer and protein content was quantified using the BioRad DC Protein Assay (BioRad, Mississauga, Canada). […]

T1 sequence (A0A4Y1YQ52 21-977): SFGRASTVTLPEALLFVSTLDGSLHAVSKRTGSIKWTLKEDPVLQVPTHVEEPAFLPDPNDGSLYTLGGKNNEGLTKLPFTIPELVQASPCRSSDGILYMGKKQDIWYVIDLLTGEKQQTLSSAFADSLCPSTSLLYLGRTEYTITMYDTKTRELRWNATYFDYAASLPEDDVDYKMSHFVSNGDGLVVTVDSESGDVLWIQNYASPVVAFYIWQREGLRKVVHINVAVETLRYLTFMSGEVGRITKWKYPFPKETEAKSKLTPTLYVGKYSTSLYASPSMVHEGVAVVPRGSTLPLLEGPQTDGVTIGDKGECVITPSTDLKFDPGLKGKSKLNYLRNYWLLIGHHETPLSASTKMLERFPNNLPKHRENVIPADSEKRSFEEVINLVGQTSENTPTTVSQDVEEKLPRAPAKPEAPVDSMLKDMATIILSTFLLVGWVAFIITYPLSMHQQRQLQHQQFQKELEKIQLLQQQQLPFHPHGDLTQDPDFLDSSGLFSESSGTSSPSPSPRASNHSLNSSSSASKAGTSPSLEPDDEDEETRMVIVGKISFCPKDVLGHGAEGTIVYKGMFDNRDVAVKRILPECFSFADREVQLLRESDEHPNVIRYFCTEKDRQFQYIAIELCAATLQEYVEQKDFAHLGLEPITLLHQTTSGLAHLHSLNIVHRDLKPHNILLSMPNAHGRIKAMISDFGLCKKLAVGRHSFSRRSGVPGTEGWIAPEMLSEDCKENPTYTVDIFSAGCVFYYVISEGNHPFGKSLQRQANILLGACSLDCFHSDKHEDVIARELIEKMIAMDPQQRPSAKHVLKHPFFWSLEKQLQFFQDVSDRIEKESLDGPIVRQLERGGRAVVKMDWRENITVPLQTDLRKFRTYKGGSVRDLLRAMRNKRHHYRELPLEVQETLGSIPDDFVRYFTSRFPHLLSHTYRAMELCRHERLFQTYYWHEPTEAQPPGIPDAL

`O=S(=O)(/N=C/c1c(O)ccc2ccccc12)c1cccs1` [STF-083010, N-[(2-Hydroxy-1-naphthyl)methylene]-2-thiophenesulfonamide] was tested, and the “spliced-to-unspliced XBP1 ratio” value (IRE1α endonuclease) was “reduced”, the “collagen synthesis induced by TGF-β1 combined with AA2P” value (VSMCs; 72 h, co-treatment, FIG. 2B) was “inhibited” and the “collagen synthesis induced by Ang II” value (VSMCs; Ang II (1 μM) 72 h, FIG. 2D) was “inhibition”. The “elevated expression levels of ER stress markers GRP78, GRP94 and PDI” value (GRP78, GRP94 and PDI) was “reduced”.
